Data reported in the supplement of paper PMC11061612.

Tests used:
Assay in all cases: combination Emax (second highest fraction inhibited in the dose matrix, 72 h); higher = more inhibition; extreme values may be limits of the assay
SN12C (Kidney Carcinoma) = test system: SN12C (Kidney Carcinoma)
Summary of the method: (§1)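 Cell lines grown in DMEM/F12 or RPMI with 10% FBS were plated in 1536-well plates and held 24 hours at 37°C, 5% CO2 before 72 hours of exposure to two-drug dose matrices, with DMSO typically at 0.2%. CellTiter-Glo 2.0 luminescence gave viability, which was converted to inhibition. Vehicle wells were set to 0 and blank wells to 1. Combination Emax is the second-highest inhibition in the matrix, and Bliss excess is the observed combination effect minus the expected EA + EB − EA·EB, where EA and EB are the single-agent effects.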

[1] = test system: DOV13 (Ovarian Carcinoma)
Summary of the method: as §1

[2] = test system: KM-H2 (Hodgkin's Lymphoma)
Summary of the method: as §1

[3] = test system: HPAC (Pancreatic Carcinoma)
Summary of the method: as §1

[4] = test system: OCI-AML2 (Acute Myeloid Leukemia)
Summary of the method: as §1

[5] = test system: DMS-273 (Small Cell Lung Carcinoma)
Summary of the method: as §1

[6] = test system: SW780 (Bladder Carcinoma)
Summary of the method: as §1

[7] = test system: U-266 (Plasma Cell Myeloma)
Summary of the method: as §1

[8] = test system: SNU-C5 (Colorectal Carcinoma)
Summary of the method: as §1

[9] = test system: MDA-MB-231 (Breast Carcinoma)
Summary of the method: as §1

NCI-H2595 (Mesothelioma) = test system: NCI-H2595 (Mesothelioma)
Summary of the method: as §1

[10] = test system: TGBC24TKB (Biliary Tract Carcinoma)
Summary of the method: as §1

[11] = test system: MDA-MB-157 (Breast Carcinoma)
Summary of the method: as §1

[12] = test system: HT-29 (Colorectal Carcinoma)
Summary of the method: as §1

[13] = test system: NCI-H1694 (Small Cell Lung Carcinoma)
Summary of the method: as §1

[14] = test system: TE-5 (Esophageal Squamous Cell Carcinoma)
Summary of the method: as §1

[15] = test system: NCI-H1781 (Lung Adenocarcinoma)
Summary of the method: as §1

[16] = test system: COR-L23 (Non-Small Cell Lung Carcinoma)
Summary of the method: as §1

[17] = test system: COR-L95 (Small Cell Lung Carcinoma)
Summary of the method: as §1

[18] = test system: CTV-1 (T-Lymphoblastic Leukemia)
Summary of the method: as §1

SMILES	combination Emax (SN12C (Kidney Carcinoma))	combination Emax [1]	combination Emax [2]	combination Emax [3]	combination Emax [4]	combination Emax [5]	combination Emax [6]	combination Emax [7]	combination Emax [8]	combination Emax [9]	combination Emax (NCI-H2595 (Mesothelioma))	combination Emax [10]	combination Emax [11]	combination Emax [12]	combination Emax [13]	combination Emax [14]	combination Emax [15]	combination Emax [16]	combination Emax [17]	combination Emax [18]
CCN(CCO)CCCOc1ccc2c(Nc3cc(CC(=O)Nc4cccc(F)c4)[nH]n3)ncnc2c1 [AZD2811] + O=C(c1cc(Cc2n[nH]c(=O)c3ccccc23)ccc1F)N1CCN(C(=O)C2CC2)CC1 [Olaparib] (first compound max 1 µM, 7x7, partner max 10 µM)	0.273	0.483	0.384	0.21	0.873	0.735	0.242	0.279	0.161	0.275	0.226	0.564	0.251	0.182	0.276	0.184	0.67	0.0799	0.436	0.375
CC1(C)CCC(CN2CCN(c3ccc(C(=O)NS(=O)(=O)c4ccc(NCC5CCOCC5)c([N+](=O)[O-])c4)c(Oc4cnc5[nH]ccc5c4)c3)CC2)=C(c2ccc(Cl)cc2)C1 [Venetoclax] + C[C@@H]1COCCN1C2=NC(=NC(=C2)C3(CC3)[S@](=N)(=O)C)C4=C5C=CNC5=NC=C4 [AZD6738] (first compound max 1 µM, 7x7, partner max 10 µM)	0.287	0.91	0.879	0.611	1	0.809	0.22	0.614	0.784	0.624	0.249	0.705	0.886	0.865	0.822	0.593	0.451	0.585	0.838	0.924
CC(=O)c1c(C)c2cnc(Nc3ccc(N4CCNCC4)cn3)nc2n(C2CCCC2)c1=O [Palbociclib] + Cc1c2c(nn1C)CSCc1cc(n(C)n1)CSc1cc(c3ccccc3c1)OCCCc1c(C(=O)O)n(C)c3c-2c(Cl)ccc13 [AZD5991] (first compound max 10 µM, 7x7, partner max 1 µM)	0.166	0.752	0.567	0.329	0.955	0.94	0.223	0.872	0.35	0.455	0.225	0.585	0.669	0.449	0.667	0.157	0.403	0.203	0.196	0.843
CC1(C)CCC(CN2CCN(c3ccc(C(=O)NS(=O)(=O)c4ccc(NCC5CCOCC5)c([N+](=O)[O-])c4)c(Oc4cnc5[nH]ccc5c4)c3)CC2)=C(c2ccc(Cl)cc2)C1 [Venetoclax] + C1CN(CCC1(C(=O)N[C@@H](CCO)C2=CC=C(C=C2)Cl)N)C3=NC=NC4=C3C=CN4 [Capivasertib] (first compound max 1 µM, 7x7, partner max 3 µM)	0.206	0.353	0.153	0.148	1	0.743	0.163	0.555	0.318	0.184	0.235	0.253	0.535	0.254	0.179	0.255	0.5	0.245	0.719	0.359
CN(C)CCCOc1ccc(-c2ccc3ncc4c(c3c2)n(C2CCOCC2)c(=O)n4C)cn1 [AZD0156] + C[C@@H]1COCCN1C2=NC(=NC(=C2)C3(CC3)[S@](=N)(=O)C)C4=C5C=CNC5=NC=C4 [AZD6738] (first compound max 1 µM, 7x7, partner max 10 µM)	0.114	0.888	0.821	0.761	0.975	0.834	0.138	0.523	0.807	0.736	0.12	0.796	0.914	0.823	0.711	0.481	0.346	0.687	0.525	0.829
CC1(C)CCC(CN2CCN(c3ccc(C(=O)NS(=O)(=O)c4ccc(NCC5CCOCC5)c([N+](=O)[O-])c4)c(Oc4cnc5[nH]ccc5c4)c3)CC2)=C(c2ccc(Cl)cc2)C1 [Venetoclax] + CCN(CCO)CCCOc1ccc2c(Nc3cc(CC(=O)Nc4cccc(F)c4)[nH]n3)ncnc2c1 [AZD2811] (first compound max 1 µM, 7x7, partner max 1 µM)	0.187	0.523	0.305	0.361	1	0.806	0.193	0.614	0.19	0.226	0.611	0.525	0.56	0.214	0.485	0.29	0.577	0.172	0.743	0.184
CN(CCO)CC[C@H](CSc1ccccc1)Nc1ccc(S(=O)(=O)NC(=O)c2ccc(N3CCC([C@@H](O)c4ccccc4-c4ccc(Cl)cc4)CC3)cc2)cc1S(=O)(=O)C(F)(F)F [AZD4320] + C1CN(CCC1(C(=O)N[C@@H](CCO)C2=CC=C(C=C2)Cl)N)C3=NC=NC4=C3C=CN4 [Capivasertib] (first compound max 1 µM, 7x7, partner max 3 µM)	0.0749	0.812	0.0543	0.137	1	0.713	0.578	0.577	0.3	0.376	0.151	0.687	0.0801	0.196	0.763	0.321	0.341	0.258	1	0.404
CC(=O)c1c(C)c2cnc(Nc3ccc(N4CCNCC4)cn3)nc2n(C2CCCC2)c1=O [Palbociclib] + Cn1cnc2c(F)c(Nc3ccc(Br)cc3Cl)c(C(=O)NOCCO)cc21 [Selumetinib] (first compound max 10 µM, 7x7, partner max 10 µM)	0.283	0.467	0.47	0.735	1	0.351	0.356	0.648	0.463	0.64	0.155	0.429	0.147	0.769	0.306	0.213	0.235	0.327	0.283	0.905
Cn1cnc2c(F)c(Nc3ccc(Br)cc3Cl)c(C(=O)NOCCO)cc21 [Selumetinib] + CCN(CCO)CCCOc1ccc2c(Nc3cc(CC(=O)Nc4cccc(F)c4)[nH]n3)ncnc2c1 [AZD2811] (first compound max 10 µM, 7x7, partner max 1 µM)	0.237	0.4	0.168	0.906	1	0.804	0.435	0.594	0.436	0.519	0.169	0.551	0.215	0.715	0.385	0.186	0.623	0.467	0.21	0.291
COc1nnc2ccc(N3CCC(c4ccc(OCCN5CCN(C)C(=O)[C@H]5C)cc4)CC3)nn12 [AZD5153] + CC1(C)CCC(CN2CCN(c3ccc(C(=O)NS(=O)(=O)c4ccc(NCC5CCOCC5)c([N+](=O)[O-])c4)c(Oc4cnc5[nH]ccc5c4)c3)CC2)=C(c2ccc(Cl)cc2)C1 [Venetoclax] (first compound max 1 µM, 7x7, partner max 1 µM)	0.318	0.477	0.377	0.535	1	0.749	0.375	0.272	0.522	0.661	0.375	0.642	0.498	0.718	0.551	0.412	0.224	0.317	0.802	0.963
COc1nnc2ccc(N3CCC(c4ccc(OCCN5CCN(C)C(=O)[C@H]5C)cc4)CC3)nn12 [AZD5153] + Cc1c2c(nn1C)CSCc1cc(n(C)n1)CSc1cc(c3ccccc3c1)OCCCc1c(C(=O)O)n(C)c3c-2c(Cl)ccc13 [AZD5991] (first compound max 1 µM, 7x7, partner max 1 µM)	0.309	0.487	0.451	0.628	1	0.994	0.365	0.899	0.56	0.642	0.602	0.848	0.993	0.716	0.992	0.407	0.435	0.312	0.371	0.939
COc1cccc(OCCCN)c1-c1cc(Nc2cnc(C#N)cn2)n[nH]1 [Prexasertib] + O=C(c1cc(Cc2n[nH]c(=O)c3ccccc23)ccc1F)N1CCN(C(=O)C2CC2)CC1 [Olaparib] (first compound max 1 µM, 7x7, partner max 10 µM)	0.387	0.962	0.877	0.593	1	0.919	0.23	0.749	0.776	0.639	0.23	0.835	0.938	0.84	0.797	0.521	0.631	0.657	0.682	0.821
